The source made the active and inactive calls. The rule behind the calls is not given here.
Experiments:
[1] = biological target: T1, Signal transducer and activator of transcription 3 (Homo sapiens, UniProt P40763); assay: Inhibition of STAT3 in human MDA-MB-231 cells assessed as decrease in Bcl-2 protein expression at 0.5 to 5 uM after 24 hrs by Western blot analysis; format: cell-based; details: dose 0.5-5 µM
4T1 [2] = assay: Antitumor activity against mouse 4T1 cells allografted in BALB/c mouse assessed as reduction in tumor weight at 15 mg/kg, ip qd for 21 days by vernier caliper method relative to control; format: functional; parameters: scale not given: the % may be the effect or the level left; details: time 21 day
MDA-MB-231 [3] = assay: Induction of apoptosis in human MDA-MB-231 cells assessed as early apoptotic cells at 2 uM incubated for 24 hrs by Annexin-V/FITC and PI staining based flow cytometry analysis (reference value: 1.4%); format: functional
[4] = Oral bioavailability in Sprague-Dawley rat at 20 mg/kg measured upto 24 hrs by LC-MS/MS analysis; format: ADME, organism-based; details: in vivo
[5] = biological target: T1, Signal transducer and activator of transcription 3; assay: Inhibition of STAT3 phosphorylation at Y705 residue in human MDA-MB-231 cells incubated for 24 hrs by Western blot assay; format: cell-based; details: dose 0.5-5 µM
4T1 [6] = assay: Antitumor activity against mouse 4T1 cells allografted in BALB/c mouse assessed as reduction in tumor volume at 30 mg/kg, ip qd for 21 days and measured every 3 days by vernier caliper method relative to control; format: functional; parameters: scale not given: the % may be the effect or the level left; details: time 21 day
[7] = biological target: T1, Signal transducer and activator of transcription 3; assay: Inhibition of STAT3 in human MDA-MB-231 cells assessed as decrease in cyclin-D1 protein expression at 0.5 to 5 uM after 24 hrs by Western blot analysis; format: cell-based; details: dose 0.5-5 µM
[8] = biological target: T1, Signal transducer and activator of transcription 3; assay: Inhibition of STAT3 in human MDA-MB-231 cells assessed as decrease in cyclin D1 mRNA expression at 0.5 to 5 uM by qRT-PCR analysis; format: cell-based; details: dose 0.5-5 µM
[9] = Clearance in Sprague-Dawley rat at 2 mg/kg, iv measured upto 24 hrs by LC-MS/MS analysis; format: ADME, organism-based; details: in vivo
MDA-MB-231 [10] = assay: Induction of apoptosis in human MDA-MB-231 cells assessed as early apoptotic cells at 10 uM incubated for 24 hrs by Annexin-V/FITC and PI staining based flow cytometry analysis (reference value: 1.4%); format: functional
MDA-MB-231 [11] = assay: Induction of apoptosis in human MDA-MB-231 cells assessed as chromatinorrhexis at 0.5 to 5 uM incubated for 24 hrs by Hoechst 33258 staining based fluorescence microscopy analysis; format: functional, cell-based; details: dose 0.5-5 µM
[12] = Volume of distribution at steady state in Sprague-Dawley rat at 2 mg/kg, iv measured upto 24 hrs by LC-MS/MS analysis; format: ADME, organism-based; details: in vivo, read-out: Vdss
[13] = Acute toxicity in po dosed ICR mouse assessed as maximum tolerated dose measured after 7 days; format: organism-based; details: in vivo, time 7 day
HCT-116 = assay: Cytotoxicity against human HCT-116 cells assessed as reduction in cell viability incubated for 48 hrs by MTT assay; format: functional, cell-based; details: HCT-116, 48 h
MDA-MB-231 [14] = assay: Inhibition of colony formation in human MDA-MB-231 cells at 0.5 to 0.5 uM incubated for 24 hrs followed by culturing in fresh compound-free medium for 15 days by crystal violet dye based assay; format: functional, cell-based; details: dose 0.5-0.5 µM
[15] = Half life in Sprague-Dawley rat at 2 mg/kg, iv measured upto 24 hrs by LC-MS/MS analysis; format: ADME, organism-based; details: in vivo
MCF-10A = assay: Cytotoxicity against human MCF-10 A cells assessed as reduction in cell viability at 32 uM incubated for 48 hrs by MTT assay relative to control; format: toxicity, cell-based
[16] = biological target: Histone deacetylase (Homo sapiens) (UniProt Q13547+O15379+Q9UBN7+Q92769+Q9UQL6+Q8WUI4+Q9BY41+Q96DB2+P56524+Q9UKV0+Q969S8); assay: Inhibition of HDAC in human MDA-MB-231 cells assessed as increase in alpha tubulin acetylation incubated for 24 hrs by Western blot analysis; format: cell-based; details: dose 0.5-5 µM, DDE = dose-dependent effect
MDA-MB-231 [17] = assay: Antimigratory activity against human MDA-MB-231 cells assessed as inhibition of cell migration at 5 uM after 24 hrs by scratch wound healing assay based phase contrast microscopy analysis; format: functional
MDA-MB-231 [18] = assay: Induction of apoptosis in human MDA-MB-231 cells assessed as late apoptotic cells at 10 uM incubated for 24 hrs by Annexin-V/FITC and PI staining based flow cytometry analysis (reference value: 0.7%); format: functional
MDA-MB-231 [19] = assay: Induction of apoptosis in human MDA-MB-231 cells assessed as viable cells at 10 uM incubated for 24 hrs by Annexin-V/FITC and PI staining based flow cytometry analysis (reference value: 97.8%); format: functional; details: read-out: Activity
MDA-MB-231 [20] = assay: Induction of apoptosis in human MDA-MB-231 cells assessed as necrotic cells at 2 uM incubated for 24 hrs by Annexin-V/FITC and PI staining based flow cytometry analysis (reference value: 0.0%); format: functional
[21] = biological target: T1, Signal transducer and activator of transcription 3; assay: Binding affinity to recombinant GST tagged STAT3 (unknown origin) assessed as association constant at equilibrium
[22] = biological target: T2, Histone deacetylase 11 (Homo sapiens) (UniProt Q96DB2); assay: Inhibition of recombinant human HDAC11 at 10 uM using Boc-Lys(TFA)-AMC as substrate by fluorescence assay relative to control
T2 sequence (whole entry): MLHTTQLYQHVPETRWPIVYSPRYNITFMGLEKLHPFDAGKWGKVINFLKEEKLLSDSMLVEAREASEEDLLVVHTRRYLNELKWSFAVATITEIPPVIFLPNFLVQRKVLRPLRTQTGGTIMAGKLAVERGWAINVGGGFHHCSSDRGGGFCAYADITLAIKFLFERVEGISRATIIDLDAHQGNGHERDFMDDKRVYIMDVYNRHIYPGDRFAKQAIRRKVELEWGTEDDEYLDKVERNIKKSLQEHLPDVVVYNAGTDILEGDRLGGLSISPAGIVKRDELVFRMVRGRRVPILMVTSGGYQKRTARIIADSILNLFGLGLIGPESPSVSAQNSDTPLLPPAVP

Histone deacetylase = assay: Inhibition of HDAC in human MDA-MB-231 cells incubated for 24 hrs by fluorometric assay; format: cell-based
MDA-MB-231 [23] = assay: Induction of apoptosis in human MDA-MB-231 cells assessed as increase in cleaved capase-7 level at 0.5 to 5 uM incubated for 24 hrs by Western blot analysis; format: functional, cell-based; details: dose 0.5-5 µM
MDA-MB-231 [24] = assay: Induction of apoptosis in human MDA-MB-231 cells assessed as necrotic cells at 10 uM incubated for 24 hrs by Annexin-V/FITC and PI staining based flow cytometry analysis (reference value: 0.0%); format: functional
Histone deacetylase 1 = Histone deacetylase 1 (Homo sapiens, UniProt Q13547); assay: Inhibition of recombinant human HDAC1 using RHKK(Ac)AMC fluorogenic peptide as substrate by fluorescence assay
Chain of Histone deacetylase 1 (Q13547 whole entry): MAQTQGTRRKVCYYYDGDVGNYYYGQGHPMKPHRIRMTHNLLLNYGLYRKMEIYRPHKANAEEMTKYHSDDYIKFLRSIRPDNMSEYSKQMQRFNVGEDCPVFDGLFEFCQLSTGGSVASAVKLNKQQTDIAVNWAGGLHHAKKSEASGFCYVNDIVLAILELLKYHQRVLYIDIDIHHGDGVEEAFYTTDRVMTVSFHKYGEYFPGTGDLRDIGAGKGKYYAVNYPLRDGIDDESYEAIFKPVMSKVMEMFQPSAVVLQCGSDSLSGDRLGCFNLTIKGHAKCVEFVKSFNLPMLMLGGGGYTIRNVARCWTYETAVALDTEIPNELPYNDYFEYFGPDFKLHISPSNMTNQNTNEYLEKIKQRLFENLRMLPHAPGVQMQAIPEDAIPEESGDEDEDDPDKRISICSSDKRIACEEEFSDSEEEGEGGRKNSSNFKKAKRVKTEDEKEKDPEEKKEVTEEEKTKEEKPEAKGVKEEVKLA

4T1 [25] = assay: Antitumor activity against mouse 4T1 cells allografted in BALB/c mouse assessed as reduction in tumor volume at 15 mg/kg, ip qd for 21 days and measured every 3 days by vernier caliper method relative to control; format: functional; parameters: scale not given: the % may be the effect or the level left; details: time 21 day
L02 = assay: Cytotoxicity against human L02 cells assessed as reduction in cell viability at 32 uM incubated for 48 hrs by MTT assay relative to control; format: toxicity, cell-based; details: l02, 48 h
[26] = Toxicity in BALB/c mousee assessed as change in body weight at 15 to 30 mg/kg, ip qd for 21 days; format: organism-based; details: mouse, in vivo, 504 h, dose 15-30 mg/kg, time 21 day

T1 sequence (P40763 whole entry): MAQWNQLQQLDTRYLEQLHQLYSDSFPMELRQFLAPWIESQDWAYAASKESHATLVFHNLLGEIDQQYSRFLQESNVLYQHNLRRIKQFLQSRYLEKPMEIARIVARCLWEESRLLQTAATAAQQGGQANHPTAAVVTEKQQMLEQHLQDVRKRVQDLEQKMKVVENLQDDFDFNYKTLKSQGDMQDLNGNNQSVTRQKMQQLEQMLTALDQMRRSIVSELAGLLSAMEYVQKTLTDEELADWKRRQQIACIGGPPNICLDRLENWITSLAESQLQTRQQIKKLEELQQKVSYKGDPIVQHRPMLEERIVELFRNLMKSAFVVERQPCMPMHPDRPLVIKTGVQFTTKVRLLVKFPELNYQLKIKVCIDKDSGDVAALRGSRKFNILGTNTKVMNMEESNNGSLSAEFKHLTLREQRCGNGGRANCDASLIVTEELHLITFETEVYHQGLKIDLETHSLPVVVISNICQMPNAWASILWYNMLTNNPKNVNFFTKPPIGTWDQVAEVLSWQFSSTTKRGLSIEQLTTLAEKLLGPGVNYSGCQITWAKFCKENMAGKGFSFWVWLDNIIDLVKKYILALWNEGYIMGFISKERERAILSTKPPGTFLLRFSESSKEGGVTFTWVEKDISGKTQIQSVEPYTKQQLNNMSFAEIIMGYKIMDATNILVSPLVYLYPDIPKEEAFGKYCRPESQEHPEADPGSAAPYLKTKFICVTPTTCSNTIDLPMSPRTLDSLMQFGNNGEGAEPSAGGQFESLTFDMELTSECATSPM

COc1cc(/C=C/c2ccc(OCCCCCCC(=O)NO)cc2)cc(OC)c1
inhibition [1]: Active
Activity (4T1 [2]): 53%
Activity (MDA-MB-231 [3]): 4.9%
bioavailability [4]: 5.81%
inhibition [5]: Active
Activity (4T1 [6]): 64%
inhibition [7]: Active
inhibition [8]: Active
clearance [9]: 63.9 mL/min/kg
Activity (MDA-MB-231 [10]): 39.6%
Activity (MDA-MB-231 [11]): Active
Vd [12]: 1.65 L/kg
MTD at 168 h [13]: > 400 mg/kg
IC50 (HCT-116): 1070 nM
inhibition (MDA-MB-231 [14]): Active
half-life [15]: 28.2 min
Activity (MCF-10A): 38%
Activity [16]: Dde
Activity (MDA-MB-231 [17]): Active
Activity (MDA-MB-231 [18]): 19.7%
viability at 10 µM (MDA-MB-231 [19]): 40.5%
Activity (MDA-MB-231 [20]): 0.1%
Ka [21]: 451000 M⁻¹ s⁻¹
inhibition [22]: 37%
IC50 (Histone deacetylase): 23.15 nM
Activity (MDA-MB-231 [23]): Active
Activity (MDA-MB-231 [24]): 0.2%
IC50 (Histone deacetylase 1): 683 nM
Activity (4T1 [25]): 54%
Activity (L02): 32%
Activity [26]: Non-Toxic

— ChEMBL document CHEMBL5154636, “Discovery of STAT3 and Histone Deacetylase (HDAC) Dual-Pathway Inhibitors for the Treatment of Solid Cancer” (J Med Chem, 2021)
